# Data published in BindingDB's records for patent US20230331683 (University of Virginia Patent Foundation, 2023).
# pIC50: −log10 of the molar value.
# Target: T1, Sphingosine-1-phosphate transporter SPNS2 (Mus musculus, UniProt Q91VM4)
# T1 sequence (Q91VM4 whole entry): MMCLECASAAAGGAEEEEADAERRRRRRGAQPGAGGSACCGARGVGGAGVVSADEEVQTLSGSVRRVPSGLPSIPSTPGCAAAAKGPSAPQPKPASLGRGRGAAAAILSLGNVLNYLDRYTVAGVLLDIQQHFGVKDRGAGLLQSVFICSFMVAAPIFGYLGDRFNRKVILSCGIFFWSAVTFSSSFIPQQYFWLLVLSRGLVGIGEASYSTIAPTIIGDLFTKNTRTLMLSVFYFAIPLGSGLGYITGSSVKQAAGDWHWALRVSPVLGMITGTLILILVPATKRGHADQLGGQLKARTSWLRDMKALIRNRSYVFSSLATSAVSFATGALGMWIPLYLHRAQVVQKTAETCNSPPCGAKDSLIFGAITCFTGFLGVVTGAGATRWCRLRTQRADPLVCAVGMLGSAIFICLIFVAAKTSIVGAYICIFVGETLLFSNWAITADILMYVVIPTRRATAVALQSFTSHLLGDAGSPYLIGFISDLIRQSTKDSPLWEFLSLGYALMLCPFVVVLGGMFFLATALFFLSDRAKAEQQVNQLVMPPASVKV
# Experiment: S1P Transporter Assay
# Description: Transporter assays are vectorial and therefore require measurement of the transported analyte in different compartments. The S1P transporter SPNS2 only exports S1P, which obviates measuring uptake of S1P into transporter-expressing cells. Thus, transporter activity was determined by quantifying S1P release from whole cells expressing SPNS2. SPNS2 inhibitor potency was assessed using whole cell assays. HeLa cells expressing mouse SPNS2 were used to determine inhibitor potency (IC50). Cells were plated onto 12 well plates and assayed when the cell monolayers became confluent. Cell growth media (RPMI-1640 containing 10% fetal bovine serum) was replaced with 2 mL of serum-free media (RPMI-1640) containing fatty acid free bovine serum albumin (BSA) (0.2 % w/v) and supplemented with 4-deoxypyridoxine (DOP) (1 mM), NaF (2 mM), Na3VO4 (0.2 mM) to inhibit S1P degradation. Test articles (1 × 10-9 - 1 × 10^-4 M) were assayed in duplicate or triplicate. After 18 hours, media was collected, an internal recovery standard (0.005 mL of 5 × 10^-7 M deuterated (d7) S 1P in methanol) was added, the BSA was precipitated with trichloroacetic acid and the bound S1P extracted with methanol. S1P and S1P-d7 were measured by liquid chromatography mass spectrometry.
row,Compound,pIC50
1,"CCCCCCCCc1ccc2cc(NC(=O)CCCN)ccc2c1 [US20230331683, Compound 2k]",< 5.70
2,"CCCCCCCCCCc1ccc(NC(=O)[C@@H]2CCN(C(=N)N)C2)cc1 [US20230331683, Compound 4b]",> 5.70
3,"CCCCCCCCCCc1ccc2nc(CCCN)oc2c1 [US20230331683, Compound 8e]",< 5.70
4,"CCCCCCCCCCc1ccc2oc(N[C@H]3CCNC3)nc2c1 [US20230331683, Compound 13j]",> 5.70
5,"CCCCCCCCCCc1ccc2oc(N[C@@H]3CCNC3)nc2c1 [US20230331683, Compound 13k]",> 5.70

# More lines, now with the values ahead:
row,pIC50,Compound
1,> 5.70,"CCCCCCCCCCc1ccc2nc(N[C@H]3CCNC3)oc2c1 [US20230331683, Compound 13s]"
2,> 5.70,"CCCCCCCCCCc1ccc2nc(N[C@@H]3CCNC3)oc2c1 [US20230331683, Compound 13t]"
3,> 5.70,"CCCCCCCCCCc1ccc(C(=O)N[C@H]2CCNC2)cc1 [US20230331683, Compound 26a]"
4,> 5.70,"CCCCCCCCCCc1ccc(C(=O)N[C@@H]2CCNC2)cc1 [US20230331683, Compound 26b]"
5,< 5.70,"CCCCCCCCCCc1ccc(C(=O)N(C)[C@@H]2CCNC2)cc1 [US20230331683, Compound 32]"
6,> 5.70,"CCCCCCCCCCc1ccc(C(=S)N[C@@H]2CCNC2)cc1 [US20230331683, Compound 33]"
7,> 5.70,"CCCCCCCCCCc1ccc2oc(NC[C@@H]3CCNC3)nc2c1 [US20230331683, Compound 37]"
8,> 5.70,"CCCCCCCCCCc1ccc2oc(NC[C@H]3CCNC3)nc2c1 [US20230331683, Compound 38]"
